Assay results: PMC6120666 (The EMBO Journal, 2018)

Experiments:
THP1Blue cells, NOD2 = test: THP1Blue NF-κB-SEAP reporter assay, MDP (NOD2); format: cell-based; conditions: Homo sapiens; MDP 10 μg/ml; read-out: THP1-Blue NF-κB Inhibition IC50 (MDP)
Method: For HEKBlue assay, cells were seeded into clear 96‐well plates at 7.5 × 10^3 cells/well and allowed to attach for 48 h. On the day of the experiment, media was changed to 100 μl of HEKBlue detection media (InvivoGen). Inhibitors were diluted and added in 0.5 μl DMSO 15 min prior to the addition of 1 ng/ml L18‐MDP (InvivoGen). After 8–9 h, absorbance at 620 nm was measured using Victor3V plate reader (Perkin Elmer, Waltham, MA). Values of media‐only wells were subtracted and %inhibition for each compound concentration relative to the DMSO/L18‐MDP‐treated controls was calculated. […] After induction, 20 μl of media was mixed with 180 μl of QUANTI‐Blue reagent (InvivoGen) and incubated at 37°C for 3–4 h, followed by absorbance measurement at 620 nm. IC50 values were calculated as described for HEKBlue assay. […]
For HEKBlue assay, cells were seeded into clear 96 well plates at 7.5x10^3 cells/well and allowed to attach for 48 h. […] After 8-9 h, absorbance at 620 nm was measured using Victor3V plate reader (Perkin Elmer, Waltham, MA). Values of media-only wells were subtracted and %inhibition for each compound concentration relative to the DMSO/L18-MDP-treated controls were calculated.
Inhibition values + StDev were fitted by non-linear regression using Prism software (GraphPad Software, La Jolla, CA) to calculate IC50 values. […] IC50 values were calculated as described for HEKBlue assay. […]

recombinant RIPK1 = target: T1, recombinant RIPK1 (Homo sapiens, UniProt Q13546); test: RIPK1 ADPGlo kinase assay; format: biochemical; conditions: concentrations up to 1 µM
T1 construct: made in house
Method: Cell viability was determined using CellTiter‐Glo assay (Promega). […] Kinase activities were determined using ADPGlo assay (Promega). • Structure of the active conformation of RIPK2 kinase domain in complex with AMP‐PNP (PDB ID: 5AR3). Figure depicts locations of the adenine and deep pockets. […] Key residues discussed in the text are shown as sticks (Lys/Glu Glu‐in bond—bottom left, catalytic Asp residues (Asp146/Asp164)—bottom right, R‐spine—right). P‐loop of CSLP18 structure is shown in yellow. Structured segment of activation segment (AS) observed in active conformation structures is shown in red. • Structure of RIPK2 kinase domain (gray ribbons) in complex with CSLP18 (orange) (PDB ID 6FU5). Sticks are shown for residues in the vicinity of the cavity surrounding the key inhibitor position R1. A 2Fo‐Fc electron density map contoured at 1 sigma is shown for the inhibitor and the residues lining the key region around inhibitor R^1 position. • Molecular docking model of RIPK2 kinase domain in complex with CSLP37 (yellow) based on RIPK2/CSLP18 structure (Fig 3D). […] Data information: Data in (A–C, G) represent the mean ± SEM of three independent experiments. **P < 0.01. Two‐way ANOVA was used to determine statistical significance. […]

T1 sequence (Q13546 whole entry, species assumed): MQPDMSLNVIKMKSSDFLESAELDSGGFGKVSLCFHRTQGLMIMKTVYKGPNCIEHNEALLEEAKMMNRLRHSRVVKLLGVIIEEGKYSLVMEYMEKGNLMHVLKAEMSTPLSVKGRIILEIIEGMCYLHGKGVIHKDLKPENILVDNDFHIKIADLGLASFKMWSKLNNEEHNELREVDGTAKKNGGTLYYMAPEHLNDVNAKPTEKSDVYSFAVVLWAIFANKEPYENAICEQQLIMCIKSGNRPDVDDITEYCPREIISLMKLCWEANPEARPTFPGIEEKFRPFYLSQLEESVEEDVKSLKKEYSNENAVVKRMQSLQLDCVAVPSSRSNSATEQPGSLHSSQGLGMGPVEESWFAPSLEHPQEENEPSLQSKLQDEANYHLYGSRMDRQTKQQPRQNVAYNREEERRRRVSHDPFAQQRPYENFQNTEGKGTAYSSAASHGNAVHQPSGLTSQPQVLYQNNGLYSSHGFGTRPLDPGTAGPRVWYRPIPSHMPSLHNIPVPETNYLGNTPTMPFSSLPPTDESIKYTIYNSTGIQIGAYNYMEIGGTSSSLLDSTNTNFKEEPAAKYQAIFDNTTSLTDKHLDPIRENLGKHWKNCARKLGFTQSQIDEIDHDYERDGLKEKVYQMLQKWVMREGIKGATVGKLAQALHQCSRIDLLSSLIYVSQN

SMILES | IC50 (THP1Blue cells, NOD2) | inhibitory activity against RIPK1 (recombinant RIPK1)
CCCS(=O)(=O)Nc1cc(-c2cc(-c3ccc(N4CCNCC4)cc3)cnc2N)cc(OC)c1OC [CSLP43] | 1.34 ± 0.08 nM | no inhibitory activity
CCCS(=O)(=O)Nc1cc(-c2cc(-c3ccc(N4CCNCC4)cc3)cnc2N)cc(F)c1OC [CSLP37] | 22.5 ± 2.1 nM | no inhibitory activity
